Data taken from ChEMBL document CHEMBL1201862, “PubChem BioAssay data set” (2004).
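Briefly, cells in 96-well plates were exposed to five compound concentrations for 48 h, and endpoints were estimated by linear interpolation. The concentration for 50% growth inhibition is given as GI50.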 Calls of active or inactive are those of the source. No stated cut-off is given here; in the data, active = GI50 up to about 1.1 µM and inactive = higher.

Experiments:
Assay in all cases: NCI anticancer screen, dose series, 48 h
786-0 = test system: 786-0
A498 = test system: A498
A549 = test system: A549
ACHN = test system: ACHN
BT-549 = test system: BT-549
CAKI-1 = test system: CAKI-1
CCRF-CEM = test system: CCRF-CEM
COLO 205 = test system: COLO 205
DLD-1 = test system: DLD-1
DMS-273 = test system: DMS-273
EKVX = test system: EKVX
HCC 2998 = test system: HCC 2998
HCT-116 = test system: HCT-116
HCT-15 = test system: HCT-15
HOP-18 = test system: HOP-18
HOP-62 = test system: HOP-62
HOP-92 = test system: HOP-92
HT-29 = test system: HT-29
Hs-578T = test system: Hs-578T
IGROV-1 = test system: IGROV-1
K562 = test system: K562
KM-20L2 = test system: KM-20L2
KM12 = test system: KM12
LOX IMVI = test system: LOX IMVI
LXFL 529 = test system: LXFL 529
M14 = test system: M14
M19-MEL = test system: M19-MEL
MCF7 = test system: MCF7
MDA-MB-231 = test system: MDA-MB-231
MDA-MB-435 = test system: MDA-MB-435
MDA-N = test system: MDA-N
MOLT-4 = test system: MOLT-4
Malme-3M = test system: Malme-3M
NCI-H226 = test system: NCI-H226
NCI-H23 = test system: NCI-H23
NCI-H460 = test system: NCI-H460
NCI/ADR-RES = test system: NCI/ADR-RES
OVCAR-3 = test system: OVCAR-3
OVCAR-4 = test system: OVCAR-4
OVCAR-5 = test system: OVCAR-5
PC-3 = test system: PC-3
RXF 393 = test system: RXF 393
SF-295 = test system: SF-295
SK-MEL-28 = test system: SK-MEL-28
SK-MEL-2 = test system: SK-MEL-2
SK-OV-3 = test system: SK-OV-3
SN12C = test system: SN12C
SNB-19 = test system: SNB-19
SNB-75 = test system: SNB-75
SNB-78 = test system: SNB-78
SR = test system: SR
SW-620 = test system: SW-620
T47D = test system: T47D
TK-10 = test system: TK-10
U-251 = test system: U-251
UACC-257 = test system: UACC-257
UACC-62 = test system: UACC-62
UO-31 = test system: UO-31
XF498 = test system: XF498
DMS-114 = test system: DMS-114
HL-60 = test system: HL-60
NCI-H522 = test system: NCI-H522
OVCAR-8 = test system: OVCAR-8
RPMI-8226 = test system: RPMI-8226
SF-268 = test system: SF-268
SF-539 = test system: SF-539
SK-MEL-5 = test system: SK-MEL-5

Measured: GI50

N/C(S)=N/N=C/c1ncccc1O
1.5 µM: HCT-15
inactive: 786-0 1.16 µM | A498 2.25 µM | A549 2.32 µM | BT-549 3.47 µM | COLO 205 2.83 µM | DLD-1 2.26 µM | EKVX 2.35 µM | HCC 2998 9.08 µM | HCT-116 1.76 µM | HOP-18 2.25 µM | HOP-62 1.23 µM | HT-29 3.56 µM | Hs-578T 30.8 µM | IGROV-1 1.55 µM | K562 1.83 µM | KM-20L2 1.39 µM | KM12 2.6 µM | LXFL 529 2.75 µM | M14 1.95 µM | M19-MEL 1.91 µM | MDA-MB-231 4.29 µM | MDA-MB-435 3.81 µM | MDA-N 3.77 µM | Malme-3M 1.95 µM | NCI-H226 2.95 µM | NCI-H460 1.29 µM | OVCAR-3 1.88 µM | OVCAR-4 2.96 µM | OVCAR-5 3.1 µM | PC-3 2.97 µM | SK-MEL-28 4.29 µM | SK-MEL-2 6.84 µM | SK-OV-3 4.21 µM | SNB-19 2.65 µM | SNB-75 1.94 µM | SNB-78 81.8 µM | SR 3.01 µM | SW-620 1.64 µM | T47D 3.14 µM | TK-10 9.57 µM | U-251 1.73 µM | UACC-257 2.49 µM | XF498 1.51 µM
active: ACHN 0.766 µM | CAKI-1 0.927 µM | CCRF-CEM 0.475 µM | DMS-273 0.508 µM | HOP-92 0.52 µM | LOX IMVI 0.925 µM | MCF7 0.723 µM | MOLT-4 0.787 µM | NCI-H23 0.597 µM | NCI/ADR-RES 0.757 µM | RXF 393 0.843 µM | SF-295 0.766 µM | SN12C 0.964 µM | UACC-62 0.482 µM | UO-31 0.701 µM

N/C(=N\O)N/N=C/c1ncccc1O
inactive: A498 35.7 µM | A549 10.1 µM | CAKI-1 22.4 µM | CCRF-CEM 6.43 µM | COLO 205 11.9 µM | DLD-1 5.65 µM | DMS-114 8.05 µM | DMS-273 7.28 µM | EKVX 22.1 µM | HCC 2998 12.1 µM | HCT-116 11.8 µM | HL-60 2.41 µM | HOP-18 22.8 µM | HOP-62 19.8 µM | HOP-92 61.7 µM | HT-29 13.4 µM | IGROV-1 16.2 µM | K562 4.82 µM | KM-20L2 10.4 µM | KM12 5.81 µM | LOX IMVI 11.2 µM | M19-MEL 19.2 µM | MCF7 2.07 µM | MOLT-4 11.2 µM | Malme-3M 35.2 µM | NCI-H226 18.7 µM | NCI-H23 > 49 µM | NCI-H460 5.96 µM | NCI-H522 15.1 µM | NCI/ADR-RES 8.73 µM | OVCAR-3 14.8 µM | OVCAR-4 18.1 µM | OVCAR-5 31.5 µM | OVCAR-8 5.04 µM | RPMI-8226 1.83 µM | RXF 393 38.2 µM | SF-268 22.7 µM | SF-295 10.6 µM | SF-539 19.7 µM | SK-MEL-28 45.9 µM | SK-MEL-2 31.3 µM | SK-MEL-5 11.4 µM | SK-OV-3 35.9 µM | SN12C 16.7 µM | SNB-19 33.8 µM | SNB-75 17.9 µM | SNB-78 > 88.5 µM | SW-620 22 µM | U-251 15.5 µM | UACC-257 26.1 µM | UACC-62 10.3 µM | UO-31 13.3 µM | XF498 12.4 µM
4.66 µM: HCT-15

COC(=O)CCC(=O)N1Cc2cc(C)ccc2N(C(=O)CCC(=O)OC)Cc2cc(C)ccc21
> 100 µM: HCT-15
inactive: 786-0 > 100 µM | A549 > 100 µM | ACHN > 100 µM | CAKI-1 > 100 µM | CCRF-CEM > 100 µM | COLO 205 > 100 µM | DLD-1 > 100 µM | DMS-273 > 100 µM | EKVX > 100 µM | HCT-116 > 100 µM | HL-60 > 100 µM | HOP-18 > 100 µM | HOP-62 > 100 µM | HOP-92 > 100 µM | HT-29 > 100 µM | IGROV-1 > 100 µM | K562 > 100 µM | KM12 > 100 µM | LOX IMVI > 100 µM | M14 > 100 µM | M19-MEL > 100 µM | MOLT-4 > 100 µM | NCI-H226 > 100 µM | NCI-H23 > 100 µM | NCI-H460 > 100 µM | NCI-H522 > 100 µM | OVCAR-3 > 100 µM | OVCAR-4 > 100 µM | OVCAR-5 > 100 µM | OVCAR-8 > 100 µM | RPMI-8226 > 100 µM | RXF 393 > 100 µM | SF-268 > 100 µM | SF-295 > 100 µM | SF-539 > 100 µM | SK-MEL-28 > 100 µM | SK-MEL-2 > 100 µM | SK-MEL-5 > 100 µM | SK-OV-3 > 100 µM | SN12C > 100 µM | SNB-78 > 100 µM | SR > 100 µM | SW-620 > 100 µM | TK-10 > 100 µM | U-251 > 100 µM | UACC-62 > 100 µM | UO-31 > 100 µM | XF498 > 100 µM

O=C1[C@H]2ON(c3ccccc3)C(c3ccco3)[C@H]2C(=O)N1c1ccc(Cc2ccc(N3C(=O)[C@@H]4ON(c5ccccc5)C(c5ccco5)[C@@H]4C3=O)cc2)cc1 (some centres undefined)
inactive: 786-0 > 100 µM | A498 > 100 µM | A549 > 100 µM | ACHN > 100 µM | CAKI-1 > 100 µM | CCRF-CEM > 100 µM | COLO 205 78.2 µM | DLD-1 > 100 µM | DMS-114 > 100 µM | DMS-273 78.3 µM | HCC 2998 > 100 µM | HL-60 > 100 µM | HOP-18 > 100 µM | HOP-62 > 100 µM | HOP-92 > 100 µM | HT-29 > 100 µM | IGROV-1 > 100 µM | K562 > 100 µM | KM-20L2 > 100 µM | KM12 > 100 µM | LOX IMVI > 100 µM | LXFL 529 > 100 µM | M14 82.2 µM | M19-MEL > 100 µM | MOLT-4 > 100 µM | Malme-3M > 100 µM | NCI-H226 > 100 µM | NCI-H23 > 100 µM | NCI-H460 > 100 µM | OVCAR-3 > 100 µM | OVCAR-4 > 100 µM | OVCAR-5 > 100 µM | RPMI-8226 > 100 µM | RXF 393 > 100 µM | SF-268 > 100 µM | SF-295 > 100 µM | SF-539 > 100 µM | SK-MEL-28 > 100 µM | SK-MEL-2 > 100 µM | SK-MEL-5 > 100 µM | SK-OV-3 > 100 µM | SN12C > 100 µM | SNB-75 > 100 µM | SNB-78 > 100 µM | SW-620 > 100 µM | U-251 > 100 µM | UACC-257 47.5 µM | UACC-62 85.3 µM | UO-31 > 100 µM | XF498 42.7 µM
> 100 µM: HCT-15

CC(C)OP(=O)(OC(C)C)/C(N)=N/Nc1ccc([N+](=O)[O-])cc1
> 100 µM: HCT-15
inactive: 786-0 > 100 µM | A549 76.2 µM | ACHN 69.8 µM | CAKI-1 > 100 µM | CCRF-CEM 98.2 µM | COLO 205 > 100 µM | DLD-1 > 100 µM | DMS-114 57.8 µM | DMS-273 > 100 µM | EKVX 25.4 µM | HCC 2998 > 100 µM | HCT-116 86.3 µM | HL-60 58.3 µM | HOP-62 > 100 µM | HOP-92 46.7 µM | K562 77.6 µM | KM-20L2 > 100 µM | KM12 > 100 µM | LOX IMVI > 100 µM | LXFL 529 66.2 µM | M14 > 100 µM | M19-MEL > 100 µM | MOLT-4 52.1 µM | Malme-3M > 100 µM | NCI-H226 53 µM | NCI-H23 63 µM | NCI-H460 41.7 µM | NCI-H522 68.7 µM | OVCAR-3 > 100 µM | OVCAR-4 > 100 µM | OVCAR-5 > 100 µM | OVCAR-8 > 100 µM | RPMI-8226 > 100 µM | SF-268 > 100 µM | SF-539 > 100 µM | SK-MEL-28 > 100 µM | SK-MEL-2 > 100 µM | SK-MEL-5 60.1 µM | SN12C > 100 µM | SNB-19 77.4 µM | SNB-75 81.7 µM | SNB-78 50.7 µM | SR > 100 µM | SW-620 > 100 µM | TK-10 27 µM | U-251 > 100 µM | UACC-257 25.1 µM | UACC-62 83 µM | UO-31 61.8 µM | XF498 23.5 µM
